# Data: PubChem BioAssay (NCI)
#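 Where inhibition never reached the appropriate level, the endpoint shown equals the highest concentration tested. Otherwise, values were interpolated linearly from a five-concentration, 48-hour dose response in 96-well plates. GI50 = concentration required for 50% inhibition of growth. At the TGI there is no net growth.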
# Assays:
# Assay in all cases: NCI tumour cell line growth inhibition, 48 h
# [1] = test system: M14 melanoma
# [2] = test system: HCT-15 colon
# [3] = test system: RXF 393 renal
# [4] = test system: K-562 leukemia
# [5] = test system: NCI-H23 lung
# [6] = test system: ACHN renal
# [7] = test system: SK-MEL-2 melanoma
# [8] = test system: NCI-H460 lung
# [9] = test system: COLO 205 colon
# [10] = test system: HCC-2998 colon
# [11] = test system: SK-OV-3 ovarian
# [12] = test system: NCI-H522 lung
# [13] = test system: A498 renal
# [14] = test system: HS 578T breast
# [15] = test system: SW-620 colon
# [16] = test system: CAKI-1 renal
# [17] = test system: PC-3 prostate
# [18] = test system: T-47D breast
# [19] = test system: SNB-75 CNS
# [20] = test system: OVCAR-5 ovarian
# [21] = test system: SK-MEL-28 melanoma
# [22] = test system: SNB-19 CNS
# [23] = test system: MDA-MB-435
# [24] = test system: SR leukemia
# [25] = test system: OVCAR-8 ovarian
# [26] = test system: DU-145 prostate
# [27] = test system: IGROV1 ovarian
# [28] = test system: U251 CNS
# [29] = test system: MCF7 breast
# [30] = test system: NCI-H226 lung
# [31] = test system: KM12 colon
# [32] = test system: HCT-116 colon
# [33] = test system: SK-MEL-5 melanoma
# [34] = test system: MALME-3M melanoma
# [35] = test system: OVCAR-4 ovarian
# [36] = test system: MDA-MB-231 breast
# [37] = test system: HOP-92 NSCLC
# [38] = test system: A549 NSCLC
# [39] = test system: RPMI-8226 leukemia
# [40] = test system: HL-60(TB) leukemia
# [41] = test system: UACC-257 melanoma
# [42] = test system: 786-0 renal
# [43] = test system: HOP-62 NSCLC
# [44] = test system: SF-295 CNS
# [45] = test system: MOLT-4 leukemia
# [46] = test system: UO-31 renal
# [47] = test system: SF-268 CNS
# [48] = test system: CCRF-CEM leukemia
# [49] = test system: OVCAR-3 ovarian
# [50] = test system: NCI/ADR-RES ovarian
# [51] = test system: UACC-62 melanoma
# [52] = test system: LOX IMVI melanoma
# [53] = test system: BT-549 breast
# [54] = test system: SN12C renal
# [55] = test system: TK-10 renal
# [56] = test system: SF-539 CNS
# [57] = test system: HT29 colon
# [58] = test system: EKVX NSCLC
smiles,measurement,setting,value
COc1cc2cc(Oc3ccc(NC(=O)Nc4ccc(Cl)c(Cl)c4)cc3)c(C)nc2cc1OC,GI50,[1],2560 nM
same,TGI,[1],10.5 µM
same,GI50,[2],3.56 µM
same,TGI,[2],> 100 µM
same,GI50,[3],4.28 µM
same,TGI,[3],16.7 µM
same,GI50,[4],3.33 µM
same,TGI,[4],> 100 µM
same,GI50,[5],3.36 µM
same,TGI,[5],15.9 µM
same,GI50,[6],3000 nM
same,TGI,[6],12.1 µM
same,GI50,[7],3 µM
same,TGI,[7],6.54 µM
same,GI50,[8],2460 nM
same,TGI,[8],10.1 µM
same,GI50,[9],2750 nM
same,TGI,[9],6.5 µM
same,GI50,[10],5.54 µM
same,TGI,[10],> 100 µM
same,GI50,[11],7.56 µM
same,TGI,[11],26.4 µM
same,GI50,[12],1740 nM
same,TGI,[12],8.43 µM
same,GI50,[13],1950 nM
same,TGI,[13],7.93 µM
same,GI50,[14],3.54 µM
same,TGI,[14],9.68 µM
same,GI50,[15],4.24 µM
same,TGI,[15],15.6 µM
same,GI50,[16],2120 nM
same,TGI,[16],6.65 µM
same,GI50,[17],1530 nM
same,TGI,[17],5.13 µM
same,GI50,[18],2700 nM
same,TGI,[18],10.1 µM
same,GI50,[19],2330 nM
same,TGI,[19],8.28 µM
same,GI50,[20],10.1 µM
same,TGI,[20],34.3 µM
same,GI50,[21],3.77 µM
same,TGI,[21],14.7 µM
same,GI50,[22],4.26 µM
same,TGI,[22],24 µM
same,GI50,[23],3.09 µM
same,TGI,[23],16.8 µM
same,GI50,[24],3.1 µM
same,TGI,[24],10.3 µM
same,GI50,[25],3.54 µM
same,TGI,[25],12.9 µM
same,GI50,[26],4.27 µM
same,TGI,[26],17.1 µM
same,GI50,[27],5.61 µM
same,TGI,[27],46.1 µM
same,GI50,[28],2190 nM
same,TGI,[28],7.26 µM
same,GI50,[29],2890 nM
same,TGI,[29],13.8 µM
same,GI50,[30],3.12 µM
same,TGI,[30],8.68 µM
same,GI50,[31],3.22 µM
same,TGI,[31],13.4 µM
same,GI50,[32],2260 nM
same,TGI,[32],10.5 µM
same,GI50,[33],2580 nM
same,TGI,[33],8.09 µM
same,GI50,[34],3.02 µM
same,TGI,[34],7.72 µM
same,GI50,[35],2670 nM
same,TGI,[35],8.3 µM
same,GI50,[36],2460 nM
same,TGI,[36],12 µM
same,GI50,[37],2040 nM
same,TGI,[37],4.88 µM
same,GI50,[38],1640 nM
same,TGI,[38],7.61 µM
same,GI50,[39],1620 nM
same,TGI,[39],5.73 µM
same,GI50,[40],2760 nM
same,TGI,[40],6.75 µM
same,GI50,[41],2310 nM
same,TGI,[41],6.28 µM
same,GI50,[42],3.64 µM
same,TGI,[42],17.7 µM
same,GI50,[43],3.55 µM
same,TGI,[43],11.9 µM
same,GI50,[44],1960 nM
same,TGI,[44],6.08 µM
same,GI50,[45],3.02 µM
same,TGI,[45],22.8 µM
same,GI50,[46],3.44 µM
same,TGI,[46],12.6 µM
same,GI50,[47],8.23 µM
same,TGI,[47],> 100 µM
same,GI50,[48],2380 nM
same,TGI,[48],14 µM
same,GI50,[49],2340 nM
same,TGI,[49],6.19 µM
same,GI50,[50],2600 nM
same,TGI,[50],16.9 µM
same,GI50,[51],3.33 µM
same,TGI,[51],19.2 µM
same,GI50,[52],3.45 µM
same,TGI,[52],14.6 µM
same,GI50,[53],2400 nM
same,TGI,[53],11.7 µM
same,GI50,[54],3.39 µM
same,TGI,[54],20.5 µM
same,GI50,[55],3.46 µM
same,TGI,[55],9.18 µM
same,GI50,[56],5.18 µM
same,TGI,[56],22.3 µM
same,GI50,[57],2340 nM
same,TGI,[57],4.89 µM
same,GI50,[58],2360 nM
same,TGI,[58],9.51 µM
